Experimental data as given in patent US8273705B2, “Conversion of apoptotic proteins” (The Burnham Institute, priority 2002, dated 2012).
Read-outs that look alike come from different tables or passages of the source. Blank lines part the entries; values can stand above or below the molecule they belong to.

Legend:
MDA-MB-231 cells = experiment: GFP-TR3 subcellular localization by confocal microscopy in MDA-MB-231 cells; assay type: cell-based; details: 10^−6 M, 1 hour
Procedure: Subcellular localization assays—Cells were seeded onto cover-slips in 6-well plates overnight, then transiently transfected with GFP-fusion expression plasmids. After 16 hours, cells were washed with PBS and fixed in 4% paraformaldehyde. For mitochondrial staining, cells were then incubated with anti-Hsp60 goat IgG (Santa Cruz, USA), followed by anti-goat IgG conjugated with Cy3 (Sigma). For cyt c staining, cells were incubated with monoclonal anti-cyt c IgG (PharMingen), followed by anti-mouse IgG conjugated with Cy5 (Amersham). Fluorescent images were collected and analyzed using a MRC-1024 MP laser-scanning confocal microscope (Bio-Rad). Subcellular fractionation assays were performed as described (Li, et al. 2000 Science 289:1159-1164). Briefly, cells (1×10^7 cells) suspended in 0.5 ml hypotonic buffer (5 mM Tris-HCl, pH 7.4, 5 mM KCl, 1.5 mM MgCl2, 0.1 mM EGTA, pH 8.0, and 1 mM DTT) were homogenized and cell extracts were centrifuged at 500×g for 5 min. […]
To study whether the TR3 nuclear-to-mitochondrial targeting pathway also occurs in breast cancer cells, a GFP-TR3 fusion construct was transfected into MDA-MB-231 cells. […] Next, GFP-TR3/ΔDBD was transiently transfected into ZR-75-1 or MDA-MB-231 cells, stained for mitochondria (Hsp60) and cytochrome c (Cyt c), and analyzed by confocal microscopy.

TR3 expression [1] = experiment: TR3 expression by Northern blotting in MDA-MB-231 cells; assay type: cell-based; details: 3 h, MM11453 and MM11384 10^−6 M, TPA 100 ng/ml, EGF 200 ng/ml
Procedure: TR3 is also expressed in both estrogen-dependent ZR-75-1 and in estrogen-independent MDA-MB-231 breast cancer cells (Wu et al. 1997 Mol Cell Bio 17:6598-6608). […] Total RNAs were prepared from MDA-MB-231 cells treated with MM1153 (10^−6 M), MM11384 (10^−6M), TPA (100 ng/ml) or EGF (200 ng/ml) for 3 h. and analyzed by Northern blotting.

TR3 expression [2] = details: human prostate cancer cells; cited from earlier work
TR3/Bcl-2 interaction = experiment: Co-IP of endogenous TR3 and Bcl-2 in LNCaP cells; assay type: cell-based; details: TPA 3 hours
Procedure: A. co-immunoprecipitation assays—to identify the interaction between TR3 and Bcl-2, a monoclonal antibody was generated against the ligand-binding domain (GBD) of TR3 for co-immunoprecipitation (Co-IP) assays. LNCaP cells were treated with TPA to induce endogenous TR3 expression for 3 hours. Cell extracts were prepared from TPA-treated and non-treated cells and incubated with mouse monoclonal anti-TR3 antibody. Immunoblotting of immunoprecipitates employed anti-Bcl-2 antibody or rabbit polyclonal anti-TR3 anti-body (Active Motif).

[3] = tested on: LNCaP prostate cancer cells; experiment: Colocalization of endogenous TR3 and transfected Bcl-2 in LNCaP cells; assay type: cell-based; details: TPA 100 ng/ml, 3 h
Procedure: D. co-localization in cells—First the interaction of endogenous TR3 and transfected Bcl-2 colocalization was identified in cells. The phorbol ester 12-0-tetradecanoyl phorbol-13-acetate (TPA) induces the expression of endogenous TR3 and its mitochondrial localization in LNCaP prostate cancer cells. LNCaP cells were transfected with Bcl-2 expression vector, treated with or without TPA (100 ng/ml) for 3 h, then immunostained with anti-Bcl-2 antibody (Santa Cruz) followed by Cy5-conjugated secondary antibody (Amersham Biosciences), or with mouse monoclonal anti-TR3 antibody followed by Cy3-conjugated secondary antibody (Sigma). Endogenous TR3 and transfected Bcl-2 were visualized using confocal microscopy and images were overlaid. […] TR3 was not detected prior to TPA treatment. […] In TPA-stimulated cells, the distribution patterns of endogenous TR3 and transfected Bcl-2 overlapped extensively in the cytoplasm, colocalizing with Hsp60, a mitochondria-specific protein.

Bcl-2 = target: T1, Bcl-2 (Homo sapiens, UniProt P10415); experiment: GST pull-down assay; assay type: binding
T1 construct: expressed in transfected cells; host or cells: HEK293T
Procedure: (§1) TR3/Bcl-2 interaction assays—Reporter gene assays using NurRE-tk-CAT in CV-1 cells, and GST pull-down assay were described previously (Li, et al. 2000 Science 289, 1159-1164). For the mammalian two-hybrid assays, CV-1 cells were co-transfected with pcDNA-Gal4TAD-TR3 or pcDNA-Gal4TAD-TR3/ΔDBD and pcDNA-Gal4DBD-Bcl-2/ΔTM along with a luciferase reporter gene driven by four copies of the Gal4-binding site. The cells were harvested and reporter gene activity was measured. For Co-IP assays, HEK293T cells were transiently transfected with various expression plasmids using a modified calcium phosphate precipitation method (Wu et al, 1997) in the presence of caspase inhibitors (zVAD-fmk) to prevent degradation of TR3 protein due to apoptosis. Cells were suspended in lysis buffer (50 mM Tris-HCl, PH7.4; 150 mM NaCl; 20 mM EDTA; 1% NP-40; 1 mM PMSF; 50 μg/ml Leupeptin; […]; 0.1 mM Na3VO4; and 1 mM DTT). Cells extracts were cleared by incubation with the Protein A/G plus Agarose beads (Santa Cruz) and then incubated with appropriate antibody and 30 μl of Protein A or G plus Agarose beads overnight at 4° C. […] Immunoreactive products were detected by chemiluminescence with an enhanced chemiluminescence system (ECL) (Amersham).
C. in vitro protein binding assays. […] Bound proteins were analyzed by SDS-PAGE autoradiography. ^35S-labeled Bcl-2 was pulled down by GST-TR3 but not by GST. […]

[4] = tested on: estrogen-dependent and -independent breast cancer cells; details: estrogen-dependent and -independent cell lines; cited from earlier work
TR3 expression [5] = details: lung cancer cells; cited from earlier work
[6] = tested on: lung and breast cancer cells; details: cited from earlier work
prostate cancer cells = details: cited from earlier work
Bcl-2/ΔTM = target: T2, Bcl-2/ΔTM (Homo sapiens, UniProt P10415); experiment: Mammalian two-hybrid assay in CV-1 cells; assay type: cell-based; details: Gal-TAD fusion co-expressed with Gal4-DBD-Bcl-2/ΔTM, 48 h
T2 construct: expressed in transfected cells; host or cells: CV-1
Procedure: as §1, with “DTT).” for “DTT). Cells extracts were cleared by incubation with the Protein A/G plus Agarose beads (Santa Cruz) and then incubated with appropriate antibody and 30 μl of Protein A or G plus Agarose beads overnight at 4° C.”
E. Two-hybrid assay—a two-hybrid assay was performed to assess the interaction of TR3 and Bcl-2. […] Reporter gene activity was determined 48 h later and normalized relative to β-gal activity.

T2 sequence (P10415 1-204 limits assumed, stated change not applied): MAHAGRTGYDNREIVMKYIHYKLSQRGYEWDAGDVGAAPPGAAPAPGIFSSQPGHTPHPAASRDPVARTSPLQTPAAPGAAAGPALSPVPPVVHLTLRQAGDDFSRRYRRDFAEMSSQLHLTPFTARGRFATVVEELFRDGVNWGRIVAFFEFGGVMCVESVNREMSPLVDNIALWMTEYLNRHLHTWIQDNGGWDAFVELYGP
T1 sequence (P10415 whole entry): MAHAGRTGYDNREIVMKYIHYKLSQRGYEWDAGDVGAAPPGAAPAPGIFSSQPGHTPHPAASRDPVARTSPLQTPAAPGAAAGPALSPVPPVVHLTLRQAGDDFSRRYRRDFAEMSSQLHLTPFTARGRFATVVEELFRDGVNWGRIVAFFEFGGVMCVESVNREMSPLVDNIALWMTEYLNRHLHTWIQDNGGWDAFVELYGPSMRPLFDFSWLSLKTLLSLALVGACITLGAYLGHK

Molecule: Cc1cc2c(cc1/C=C(\Br)C(=O)c1ccc(C(=O)O)cc1)C(C)(C)CCC2(C)C [MM11384, (Z)-4-[2-bromo-3-(5,6,7,8-tetrahydro-3,5,5,8,8-pentamethyl-2-naphthalenyl)propenoyl]benzoic acid]
GFP-TR3 subcellular localization (MDA-MB-231 cells): translocated to mitochondria
TR3 expression (TR3 expression [1]): induced
TR3 expression (TR3 expression [2]): induced TR3 expression

Molecule: CCCCCCCCCCCCCC(=O)O[C@@H]1[C@@H](C)[C@@]2(O)[C@@H](C=C(CO)C[C@]3(O)C(=O)C(C)=C[C@@H]23)[C@@H]2C(C)(C)[C@]12OC(C)=O [TPA, 12-O-tetradecanoyl phorbol-13-acetate]
co-immunoprecipitation of Bcl-2 by anti-TR3 antibody (TR3/Bcl-2 interaction): specifically co-immunoprecipitated
TR3 expression (TR3 expression [1]): induced
TR3 expression (TR3 expression [2]): induced TR3 expression
TR3 immunostaining [3]: strong TR3 immunostaining
cells demonstrating colocalization of endogenous TR3 and transfected Bcl-2 [3]: Approximately 80%

binding of ^35S-labeled Bcl-2 (Bcl-2): pulled down
Molecule: GST-TR3: GST fusion of TR3 immobilized on glutathione-Sepharose

Molecule: EGF: the mitogenic agent epidermal growth factor
TR3 expression (TR3 expression [1]): induced

Molecule: O=C(O)c1cc2ccc(-c3ccc(O)c(C45CC6CC(CC(C6)C4)C5)c3)cc2cc1Cl [MM11453, 6-[3-(1-adamantyl)-4-hydroxyphenyl]-3-chloro-2-naphthalenecarboxylic acid]
GFP-TR3 subcellular localization (MDA-MB-231 cells): translocated to mitochondria
TR3 expression (TR3 expression [1]): significantly induced
apoptosis of breast cancer cells [4]: effectively induces apoptosis
TR3 expression (TR3 expression [2]): induced TR3 expression

Molecule: O=C(O)c1ccc2cc(-c3ccc(O)c(C45CC6CC(CC(C6)C4)C5)c3)ccc2c1 [AHPN, 6-[3-(1-adamantyl)-4-hydroxyphenyl]-2-naphthalene carboxylic acid]
TR3 expression (TR3 expression [5]): significantly induced
apoptosis of breast cancer cells [4]: effectively induces apoptosis
apoptosis of lung and breast cancer cells [6]: effectively induce apoptosis
apoptosis of prostate cancer cells (prostate cancer cells): potently induces apoptosis

Molecule: CNc1ccc2oc(C[C@H]3O[C@@]4(CC[C@H]3C)O[C@H]([C@H](C)C(=O)c3ccc[nH]3)[C@H](C)C[C@H]4C)nc2c1C(=O)O [A23187]
TR3 expression (TR3 expression [2]): induced TR3 expression

Gal4 reporter gene activity (Bcl-2/ΔTM): strongly activated
Molecule: TR3: orphan receptor TR3, nuclear transcription factor

Molecule: COc1cc([C@@H]2c3cc4c(cc3[C@@H](O[C@@H]3O[C@@H]5CO[C@@H](C)O[C@H]5[C@H](O)[C@H]3O)[C@H]3COC(=O)[C@H]23)OCO4)cc(OC)c1O [VP-16]
TR3 expression (TR3 expression [2]): induced TR3 expression
